“And” between values parts separate entries of the source, which are not always exact repeats. Equal entries are not always repeated.
How the values were obtained:
Format in all cases: functional, Homo sapiens
TERT-RPE1 = test: (§1) Here: values are normalized to the negative (DMSO; defined as 0% autophagy induction) and positive (250nM Torin1; mTOR inhibitor; defined as maximal inducer of autophagy = 100%) control compounds and represented as % of autophagy induction. […] The impact of autophagy induction on cells is complex and depends on the affected target. As such, the magnitude of a phenotype may not be equally mirrored in the %-value of autophagy induction and vice versa. The dynamics of the induction may indicate the mode of activation: e.g. activation via phosphorylation or a signaling cascade may occur fast, while activation via transcription factors may take considerably longer. […] Of note, treatment concentrations may be sub-optimal for specific compounds, leading to false negative annotations.; conditions: Culturing Media DMEM/F12 (1:1), 1 % Penicillin/Streptomycin, 10% Fetal bovin serum Add-On: No, Screening Media Control DMEM/F12 (1:1), Screening Media Samples DMEM/F12 (1:1)
U2OS [1] = test: as §1; conditions: Culturing Media DMEM, 1 % Penicillin/Streptomycin, 10% Fetal bovin serum Add-On: No, Screening Media Control DMEM, Screening Media Samples DMEM
U2OS [2] = test: as §1; conditions: Culturing Media DMEM, 1 % Penicillin/Streptomycin, 10% Fetal bovin serum Add-On: No, Screening Media Control DMEM, Screening Media Samples DMEM; remark: listed apart in the source
[3] = Compound Concentration 0.5 uM, Timepoint 12 hours
[4] = Compound Concentration 0.5 uM, Timepoint 24 hours
[5] = Compound Concentration 0.5 uM, Timepoint 36 hours
[6] = Compound Concentration 0.5 uM, Timepoint 60 hours
[7] = Compound Concentration 2 uM, Timepoint 12 hours
[8] = Compound Concentration 2 uM, Timepoint 24 hours
[9] = Compound Concentration 2 uM, Timepoint 36 hours
[10] = Compound Concentration 2 uM, Timepoint 60 hours
[11] = Compound Concentration 10 uM, Timepoint 12 hours
[12] = Compound Concentration 10 uM, Timepoint 24 hours
[13] = Compound Concentration 10 uM, Timepoint 36 hours
[14] = Compound Concentration 10 uM, Timepoint 60 hours

SMILES	autophagy induction (U2OS [1]; [3]) [%]	autophagy induction (U2OS [1]; [4]) [%]	autophagy induction (U2OS [1]; [5]) [%]	autophagy induction (U2OS [1]; [6]) [%]	autophagy induction (U2OS [1]; [7]) [%]	autophagy induction (U2OS [1]; [8]) [%]	autophagy induction (U2OS [1]; [9]) [%]	autophagy induction (U2OS [1]; [10]) [%]	autophagy induction (U2OS [1]; [11]) [%]	autophagy induction (U2OS [1]; [12]) [%]	autophagy induction (U2OS [1]; [13]) [%]	autophagy induction (U2OS [1]; [14]) [%]	autophagy induction (U2OS [2]; [3]) [%]	autophagy induction (U2OS [2]; [4]) [%]	autophagy induction (U2OS [2]; [5]) [%]	autophagy induction (U2OS [2]; [6]) [%]	autophagy induction (U2OS [2]; [7]) [%]	autophagy induction (U2OS [2]; [8]) [%]	autophagy induction (U2OS [2]; [9]) [%]	autophagy induction (U2OS [2]; [10]) [%]	other results
O=C(O)CC1CCC2(CC1)CCN(c1cc(OC(F)(F)F)ccc1Cl)CC2	6.893	1.231	-59.5433	-1.659	4.528	2.023	-58.8057	0.09301	1.476	-1.647	-59.8779	-1.029	-7.253	-0.0788	-0.8569	-4.709	-6.392	-5.775	-5.315	-3.59	autophagy induction (TERT-RPE1; Compound Concentration 0.5 uM, Timepoint 12 hours, 12 h, 0.5 µM): 1.5088% and -4.208%; autophagy induction (TERT-RPE1; Compound Concentration 0.5 uM, Timepoint 24 hours, 24 h, 0.5 µM): -1.371% and -2.379%; autophagy induction (TERT-RPE1; Compound Concentration 0.5 uM, Timepoint 36 hours, 36 h, 0.5 µM): -4.319% and -4.033%; autophagy induction (TERT-RPE1; Compound Concentration 0.5 uM, Timepoint 60 hours, 60 h, 0.5 µM): -5.803% and -6.663%; autophagy induction (TERT-RPE1; Compound Concentration 2 uM, Timepoint 12 hours, 12 h, 2 µM): 7.834% and -3.775%; autophagy induction (TERT-RPE1; Compound Concentration 2 uM, Timepoint 24 hours, 24 h, 2 µM): 2.312% and -6.096%; autophagy induction (TERT-RPE1; Compound Concentration 2 uM, Timepoint 36 hours, 36 h, 2 µM): -2.505% and -8.733%; autophagy induction (TERT-RPE1; Compound Concentration 2 uM, Timepoint 60 hours, 60 h, 2 µM): -5.7463% and -9.633%; autophagy induction (TERT-RPE1; Compound Concentration 10 uM, Timepoint 12 hours, 12 h, 10 µM): 5.943% and -1.866%; autophagy induction (TERT-RPE1; Compound Concentration 10 uM, Timepoint 24 hours, 24 h, 10 µM): 5.6585% and -2.656%; autophagy induction (TERT-RPE1; Compound Concentration 10 uM, Timepoint 36 hours, 36 h, 10 µM): 3.294% and -3.964%; autophagy induction (TERT-RPE1; Compound Concentration 10 uM, Timepoint 60 hours, 60 h, 10 µM): -1.174% and -1.531%; autophagy induction (U2OS [2]; [11]): -7.404%; autophagy induction (U2OS [2]; [12]): -7.084%; autophagy induction (U2OS [2]; [13]): -0.9405%; autophagy induction (U2OS [2]; [14]): -11.9422%
Cc1nnn(-c2ccc(-c3ccc(C4(C(=O)O)CC4)cc3)cc2)c1NC(=O)O[C@H](C)c1ccccc1	2.665	0.2559	-0.1373	0.1457	3.283	0.4892	-0.1911	-0.4752	8.52	5.722	2.388	0.4676	-1.478	0.2424	-2.356	-5.696	5.693	3.627	6.347	1.322	autophagy induction (TERT-RPE1; [3]): -8.995%; autophagy induction (TERT-RPE1; [4]): -11.6561%; autophagy induction (TERT-RPE1; [5]): -16.9316%; autophagy induction (TERT-RPE1; [6]): -15.4997%; autophagy induction (TERT-RPE1; [7]): -6.061%; autophagy induction (TERT-RPE1; [8]): -9.8231%; autophagy induction (TERT-RPE1; [9]): -13.2189%; autophagy induction (TERT-RPE1; [10]): 6.862%; autophagy induction (TERT-RPE1; [11]): 6.725%; autophagy induction (TERT-RPE1; [12]): 7.557%; autophagy induction (TERT-RPE1; [13]): 8.9017%; autophagy induction (TERT-RPE1; [14]): 33.5372%; autophagy induction (U2OS [2]; [11]): 9.873%; autophagy induction (U2OS [2]; [12]): 11.541%; autophagy induction (U2OS [2]; [13]): 8.0313%; autophagy induction (U2OS [2]; [14]): 1.41%

— ChEMBL document CHEMBL5724696, “Autophagy assay results for EUbOPEN Chemogenomics Library” (2024)
